Measured values reported in patent publication US10562902B2, “IRAK4 inhibitor and use thereof” (BEIJING HANMI PHARMACEUTICAL CO., LTD., priority 2015, dated 2020).

Each molecule was assayed against IRAK4 kinase (Homo sapiens (Human), UniProt Q9NWZ3) (assay: IRAK4 kinase activity inhibition assay). Conditions: ADP-Glo kinase assay, 10 μM ATP, MBP substrate.
Type: biochemical
Method: IRAK4 kinase (purchased from Life Technologies, Cat. No.: PR5612U) was diluted to 2 folds of the final concentration (the final concentration is […]) with reaction buffer (40 mM Tris-HC1, pH 7.5; 20 mM MgCl2; 0.1 mg/mL BSA; 1 mM DTT), and added to a 384-well plate at 5 μL/well. The test drugs were 10-fold serial diluted from 10 μM to set six concentration points and added to the test wells of the 384-well plate at 2.5 μL/well. After incubation for 10 min at 25° C., 10 μM of ATP and 0.1 μg/μL of an enzyme reaction substrate, myelin basic protein MBP (purchased from Signal Chem, Cat. No.: M42-51N) were added at 2.5 μL/well, and reacted at 25° C. for 60 minutes. After the reaction was completed, the kinase activity assay was performed using the ADP-Glo™ kinase assay kit (purchased from Promega, Cat. No.: V9102) according to the manufacture's instruction, i.e., 10 μL of ADP-Glo reaction reagent was first added and reacted at 25° C. for 40 minutes, 10 μL of the reaction mixture was taken and mixed with 10 μL of ADP-Glo detection reagent, and reacted at 25° C. for 30 minutes. The kinase activity was then detected, and the IC50 values of the test drugs were calculated.

Sequence of IRAK4 kinase (Q9NWZ3 whole entry): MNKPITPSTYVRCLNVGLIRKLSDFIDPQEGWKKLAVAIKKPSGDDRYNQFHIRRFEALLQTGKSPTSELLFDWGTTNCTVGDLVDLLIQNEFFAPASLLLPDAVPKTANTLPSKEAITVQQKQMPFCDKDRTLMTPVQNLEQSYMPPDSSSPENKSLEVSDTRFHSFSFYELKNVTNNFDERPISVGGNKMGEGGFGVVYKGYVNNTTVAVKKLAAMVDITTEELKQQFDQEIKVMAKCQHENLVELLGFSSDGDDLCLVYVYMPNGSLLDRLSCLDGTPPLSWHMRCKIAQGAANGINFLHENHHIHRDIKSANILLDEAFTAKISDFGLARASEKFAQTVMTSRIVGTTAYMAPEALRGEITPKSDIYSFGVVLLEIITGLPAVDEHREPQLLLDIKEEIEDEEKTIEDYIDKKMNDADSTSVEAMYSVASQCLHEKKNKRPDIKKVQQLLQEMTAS

| SMILES | IC50 |
| --- | --- |
| COc1cc(-n2ccc3nc(Nc4cc(C)ns4)nc(NC(C)C)c32)ccn1 [Example 42] | 100 to 1000 nM |
| Cn1cc(-n2ccc3nc(Nc4csc5ccccc45)nc(O[C@H]4CCOC4)c32)cn1 [Example 85] | 1000 to 10000 nM |
| Cc1cc(Nc2nc(NC3CCC3)c3c(ccn3-c3cnn(C)c3)n2)sn1 [Example 12] | 100 to 1000 nM |
| Cc1cc(Nc2nc(NC(C)C)c3c(ccn3-c3cccc(C(=O)O)c3)n2)sn1 [Example 35] | 1000 to 10000 nM |
| Cc1cc(Nc2nc(OC3CCCN(C)C3)c3c(ccn3-c3cnn(C)c3)n2)sn1 (stereo not drawn) [Example 69] | 100 to 1000 nM |
| Cc1cc(Nc2nc(OC3CCOCC3)c3c(ccn3-c3cccc4c3OCCO4)n2)sn1 [Example 104] | 100 to 1000 nM |
| CC(=O)NCCCNc1nc(Nc2cc(C)ns2)nc2ccn(-c3cnn(C)c3)c12 [Example 9] | 100 to 1000 nM |
| Cc1cc(Nc2nc(NC(C)C)c3c(ccn3-c3cccc4c3cnn4C)n2)sn1 [Example 44] | 1000 to 10000 nM |
| Cc1cc(Nc2nc(OC3CCOCC3)c3c(ccn3-c3cncnc3)n2)sn1 [Example 103] | 100 to 1000 nM |
| CC(=O)N1CCC(Oc2nc(Nc3cc(C)ns3)nc3ccn(-c4cnn(C)c4)c23)CC1 [Example 73] | 100 to 1000 nM |
| Cc1cc(Nc2nc(OC3CCCC3)c3c(ccn3-c3cnn(C)c3)n2)sn1 [Example 63] | 100 to 1000 nM |
| Cc1cc(Nc2nc(N[C@H]3CC[C@H](O)CC3)c3c(ccn3-c3ccccc3)n2)sn1 [Example 33] | 100 to 1000 nM |
| Cc1cc(Nc2nc(NC(C)C)c3c(ccn3-c3ccnc(O)c3)n2)sn1 [Example 41] | 100 to 1000 nM |
| Cc1cc(Nc2nc(OC3CCC3)c3c(ccn3-c3cnn(C)c3)n2)sn1 [Example 60] | 100 to 1000 nM |
| Cn1cc(-n2ccc3nc(Nc4ccc(C(=O)N5CCOCC5)cc4)nc(O[C@H]4CCOC4)c32)cn1 [Example 119] | 100 to 1000 nM |
| COCCCOc1nc(Nc2cc(C)ns2)nc2ccn(-c3cnn(C)c3)c12 [Example 57] | 100 to 1000 nM |
| Cc1cc(Nc2nc(NC(C)C)c3c(ccn3-c3cnn(C4CCOCC4)c3)n2)sn1 [Example 32] | 100 to 1000 nM |

| SMILES | IC50 |
| --- | --- |
| Cn1cc(-n2ccc3nc(Nc4cc(C(=O)N5CCSCC5)cs4)nc(O[C@H]4CCOC4)c32)cn1 [Example 153] | 100 to 1000 nM |
| Cc1cc(Nc2nc(OC3CCSCC3)c3c(ccn3-c3cnn(C)c3)n2)sn1 [Example 75] | 100 to 1000 nM |
| Cc1cc(Nc2nc(NCCN3CCOCC3)c3c(ccn3-c3cnn(C)c3)n2)sn1 [Example 10] | 100 to 1000 nM |
| COc1cncc(-n2ccc3nc(Nc4cc(C)ns4)nc(OC4CCOCC4)c32)c1 [Example 99] | 100 to 1000 nM |
| CN(C)C(=O)c1csc(Nc2nc(NC3CCOCC3)c3c(ccn3-c3cnn(C)c3)n2)c1 [Example 50] | 100 to 1000 nM |
| Cn1cc(-n2ccc3nc(Nc4cc(C(=O)NC5CCCCC5)cs4)nc(O[C@H]4CCOC4)c32)cn1 [Example 144] | 100 to 1000 nM |
| Cc1cc(Nc2nc(O[C@H]3CCOC3)c3c(ccn3-c3ccncc3)n2)sn1 [Example 100] | 100 to 1000 nM |
| COc1ccccc1-n1ccc2nc(Nc3cc(C)ns3)nc(OC3CCOCC3)c21 [Example 93] | 1000 to 10000 nM |
| COc1cccc(-n2ccc3nc(Nc4cc(C)ns4)nc(OC4CCOCC4)c32)c1 [Example 94] | 1000 to 10000 nM |
| Cc1cc(Nc2nc(NC3CCCCC3)c3c(ccn3-c3cnn(C)c3)n2)sn1 [Example 22] | 100 to 1000 nM |
| CCCNC(=O)c1csc(Nc2nc(O[C@H]3CCOC3)c3c(ccn3-c3cnn(C)c3)n2)c1 [Example 135] | 100 to 1000 nM |
| Cc1cc(Nc2nc(N[C@@H]3CCOC3)c3c(ccn3-c3cnn(C)c3)n2)sn1 [Example 20] | 100 to 1000 nM |
| Cn1cc(-n2ccc3nc(Nc4cc(C(=O)NCc5cccs5)cs4)nc(O[C@H]4CCOC4)c32)cn1 [Example 142] | 100 to 1000 nM |
| CN(C)C(=O)c1cc(Nc2nc(OC3CCOCC3)c3c(ccn3-c3cnn(C)c3)n2)cs1 [Example 174] | 100 to 1000 nM |
| Cc1cc(Nc2nc(OC3CCOCC3)c3c(ccn3-c3cccnc3)n2)sn1 [Example 98] | 100 to 1000 nM |
| Cc1cc(Nc2nc(N[C@H]3C[C@@H](N4CCCCC4)C3)c3c(ccn3-c3cnn(C)c3)n2)sn1 [Example 15] | 100 to 1000 nM |

The next lines start with the values.

| IC50 | SMILES |
| --- | --- |
| ≤ 100 nM | CNC(=O)c1cc(Nc2nc(OC3CCOCC3)c3c(ccn3-c3cnn(C)c3)n2)cs1 [Example 172] |
| 100 to 1000 nM | CCNC(=O)c1csc(Nc2nc(OC3CCCC3)c3c(ccn3-c3cnn(C)c3)n2)c1 [Example 128] |
| 100 to 1000 nM | CC(=O)NCCNc1nc(Nc2cc(C)ns2)nc2ccn(-c3cnn(C)c3)c12 [Example 8] |
| 100 to 1000 nM | Cc1cc(Nc2nc(OC3CCOCC3)c3c(ccn3-c3ccn(C)c3)n2)sn1 [Example 86] |
| 100 to 1000 nM | Cc1cc(Nc2nc(NCCCN3CCOCC3)c3c(ccn3-c3cnn(C)c3)n2)sn1 [Example 11] |
| 100 to 1000 nM | Cc1cc(Nc2nc(OC3CCS(=O)(=O)CC3)c3c(ccn3-c3cnn(C)c3)n2)sn1 [Example 76] |
| ≤ 100 nM | Cn1cc(-n2ccc3nc(Nc4cnn(C5CCOCC5)c4)nc(O[C@H]4CCOC4)c32)cn1 [Example 110] |
| ≤ 100 nM | Cc1cc(Nc2nc(OC3COC3)c3c(ccn3-c3cnn(C)c3)n2)sn1 [Example 61] |
| ≤ 100 nM | Cc1cc(Nc2nc(N[C@H]3CC[C@H](O)CC3)c3c(ccn3-c3cnn(C)c3)n2)sn1 [Example 1, trans-4-[2-(3-methylisothiazol-5-ylamino)-5-(1-methyl-1H-pyrazol-4-yl)-5H-pyrrolo[3,2-d]pyrimidin-4-ylamino]cyclohexanol] |
| ≤ 100 nM | Cn1cc(-n2ccc3nc(Nc4cc(C(=O)NCCF)cs4)nc(O[C@H]4CCOC4)c32)cn1 [Example 137] |
| ≤ 100 nM | Cn1cc(-n2ccc3nc(Nc4cc(C(=O)N5CCCCC5)cs4)nc(O[C@H]4CCOC4)c32)cn1 [Example 150] |
| ≤ 100 nM | CNC(=O)c1cc(Nc2nc(NC3CCOCC3)c3c(ccn3-c3cnn(C)c3)n2)cs1 [Example 51] |
| ≤ 100 nM | CCNC(=O)c1csc(Nc2nc(O[C@@H]3CCOC3)c3c(ccn3-c3cnn(C)c3)n2)c1 [Example 131] |
| ≤ 100 nM | Cc1cc(Nc2nc(O[C@@H]3CCOC3)c3c(ccn3-c3cnn(C)c3)n2)sn1 [Example 65] |
| ≤ 100 nM | Cn1cc(-n2ccc3nc(Nc4cc(C(N)=O)cs4)nc(O[C@H]4CCOC4)c32)cn1 [Example 132] |
| ≤ 100 nM | Cn1cc(-n2ccc3nc(Nc4ccc[nH]4)nc(O[C@H]4CCOC4)c32)cn1 [Example 77] |
| ≤ 100 nM | CNC(=O)c1cc(Nc2nc(O[C@H]3CCOC3)c3c(ccn3-c3cnn(C)c3)n2)cs1 [Example 159] |
| ≤ 100 nM | Cn1cc(-n2ccc3nc(Nc4cc(C(=O)NCCF)cs4)nc(OC4CCOCC4)c32)cn1 [Example 169] |
| ≤ 100 nM | Cn1cc(-n2ccc3nc(Nc4cc(C(=O)N5CCS(=O)(=O)CC5)cs4)nc(O[C@H]4CCOC4)c32)cn1 [Example 154] |
| ≤ 100 nM | Cc1cc(Nc2nc(OC3CC(N4CCCCC4)C3)c3c(ccn3-c3cnn(C)c3)n2)sn1 (stereo not drawn) [Example 62] |

| IC50 | SMILES |
| --- | --- |
| ≤ 100 nM | Cn1cc(-n2ccc3nc(Nc4cc(C(=O)N[C@@H]5CCOC5)cs4)nc(O[C@H]4CCOC4)c32)cn1 [Example 146] |
| ≤ 100 nM | Cn1cc(-n2ccc3nc(Nc4cc(C(=O)NCC5CCOCC5)cs4)nc(O[C@H]4CCOC4)c32)cn1 [Example 140] |
| ≤ 100 nM | COCCOc1nc(Nc2cc(C)ns2)nc2ccn(-c3cnn(C)c3)c12 [Example 55] |
| ≤ 100 nM | Cc1cc(Nc2nc(NCCCO)c3c(ccn3-c3cnn(C)c3)n2)sn1 [Example 4] |
| ≤ 100 nM | CCNC(=O)c1csc(Nc2nc(OC(C)C)c3c(ccn3-c3cnn(C)c3)n2)c1 [Example 127] |
| ≤ 100 nM | CCNC(=O)c1cc(Nc2nc(OCCOC)c3c(ccn3-c3cnn(C)c3)n2)cs1 [Example 156] |
| ≤ 100 nM | Cc1cc(Nc2nc(N[C@H]3C[C@@](C)(O)C3)c3c(ccn3-c3cnn(C)c3)n2)sn1 [Example 14] |
| ≤ 100 nM | CNC(=O)c1cc(Nc2nc(O[C@@H]3CCOC3)c3c(ccn3-c3cnn(C)c3)n2)cs1 [Example 157] |
| ≤ 100 nM | Cn1cc(-n2ccc3nc(Nc4cnn(-c5cccnc5)c4)nc(O[C@H]4CCOC4)c32)cn1 [Example 114] |
| ≤ 100 nM | CNC(=O)c1csc(Nc2nc(OC3CCOCC3)c3c(ccn3-c3cnn(C)c3)n2)c1 [Example 167] |
| ≤ 100 nM | Cn1cc(-n2ccc3nc(Nc4cc(C(=O)NC5CCOCC5)cs4)nc(O[C@H]4CCOC4)c32)cn1 [Example 148] |
| ≤ 100 nM | CCNC(=O)c1csc(Nc2nc(OC3CCOCC3)c3c(ccn3-c3cnn(C)c3)n2)c1 [Example 168] |
| ≤ 100 nM | Cc1cc(Nc2nc(N[C@@H]3C[C@H](CO)[C@@H](O)[C@H]3O)c3c(ccn3-c3cnn(C)c3)n2)sn1 [Example 19] |
| ≤ 100 nM | CCNC(=O)c1cc(Nc2nc(OC3CCOCC3)c3c(ccn3-c3cnn(C)c3)n2)cs1 [Example 173] |
| ≤ 100 nM | CN(C)C(=O)c1csc(Nc2nc(OC3CCOCC3)c3c(ccn3-c3cnn(C)c3)n2)c1 [Example 171] |
| ≤ 100 nM | CN1CCC(NC(=O)c2cc(Nc3nc(O[C@H]4CCOC4)c4c(ccn4-c4cnn(C)c4)n3)cs2)CC1 [Example 162] |
| ≤ 100 nM | Cc1cc(Nc2nc(NCCCCO)c3c(ccn3-c3cnn(C)c3)n2)sn1 [Example 5] |
| ≤ 100 nM | CO[C@H]1CC[C@H](Nc2nc(Nc3cc(C)ns3)nc3ccn(-c4cnn(C)c4)c23)CC1 [Example 26] |
| ≤ 100 nM | CN(C)C(=O)c1csc(Nc2nc(O[C@H]3CCOC3)c3c(ccn3-c3cnn(C)c3)n2)c1 [Example 149] |
